{"source": "patent US5545736A", "about": "“6-thiono-5,6-dihydro-dibenz[B,E] azepin-11-one-11-oximes” (Bayer Aktiengesellschaft, priority 1991, dated 1996)", "system": "HIV", "assay": "HIV infection in cell culture (syncytia formation; PBLs or H9 cells)", "assay_type": "cell-based", "conditions": "read-out: IC50 (concentration at which 50% of the virus-induced syncytia were suppressed)", "protocol": "The HIV test was carried out with slight modifications according to the method of Pauwels et al. [cf. Journal of Virological Methods 20, (1988), 309-321].\nNormal human blood lymphocytes (PBLs) were concentrated by means of Ficoll-Hypaque and stimulated with phytohaemagglutinin (90 μg/ml) and interleukin-2 (40 U/ml) in RPMI 1640 and 20% foetal calf serum. For infection with the infectious HIV, PBLs were pelleted and the cell pellet was then suspended in 1 ml of HIV virus adsorption solution and incubated for 1 hour at 37° C.\nAlternatively, HIV-susceptible H9 cells were employed instead of normal human blood lymphocytes for testing the antiviral effects of the compounds according to the invention.\nThe virus adsorption solution was centrifuged and the infected cell pellet was taken up in growth medium so that a concentration of 1×10^5 cells per ml was established. The cells infected in this way were pipetted into the wells of 96-well microtiter plates to give 1×10^4 cells/well.\nThe first vertical row of the microtiter plate contained only growth medium and cells which had not been infected, but otherwise treated exactly as described above (cell control). The second vertical row of the microtiter plate contained only HIV-infected cells (virus control) in growth medium. The other wells contained the compounds according to the invention in differing concentrations, starting from the wells of the 3rd vertical row of the microtiter plate, from which the test substances were diluted 2^10 times in 2-fold steps.\nThe test batches were incubated at 37° C. until, in the untreated virus control, the syncytia formation typical of HIV occurred (between day 3 and 6 after infection), which was then microscopically assessed. Under these test conditions, in the untreated virus control about 20-50 syncytia resulted, while the untreated cell control contained no syncytia.\nThe IC50 values were determined as the concentration of the treated and infected cells at which 50% (about 10-20 syncytia) of the virus-induced syncytia were suppressed by treatment with the compound according to the invention.", "key": {"[1]": {"conditions": "Human immunodeficiency virus 1, 72 h, HIV-infected PBLs or alternatively H9 cells, 37° C., read between day 3 and 6 after infection"}}, "note": "pIC50: −log10 of the molar value. Like-named read-outs stand apart in the source and are kept apart here.", "data": [{"compound": "S=c1[nH]c2ccc(Cl)cc2c(=NOCCN2CCOCC2)c2ccccc12", "note": "[Example 3]", "values": [{"measurement": "pIC50", "setting": "[1]", "value": 6.42}]}, {"compound": "Cc1ccnc2c1NC(=O)c1cccnc1N2C1CC1", "note": "[BIRG 587, reference compound]", "values": [{"measurement": "pIC50", "setting": "Human immunodeficiency virus 1, H9, 72 h", "value": 7.05}]}, {"compound": "CN(C)CCON=c1c2cc(Cl)ccc2[nH]c(=S)c2ccccc12", "note": "[Example 2]", "values": [{"measurement": "pIC50", "setting": "[1]", "value": 5.82}]}, {"compound": "CON=c1c2cc(Cl)ccc2[nH]c(=S)c2ccccc12", "note": "[Example 4]", "values": [{"measurement": "pIC50", "setting": "[1]", "value": 6.42}]}]}
